In US20100216779A1 (GLAXOSMITHKLINE LLC, priority 2007, published 2010):

System: various cell lines of different tumor origins
Test: Inhibition of cell proliferation, InCell Analyzer assay
Format: cell-based
Method: C. Inhibition of Cell Proliferation
For InCell Analyser assay, various cell lines of different tumor origins were grown to 70-80% confluency in appropriate culture media containing 10% fetal bovine serum at 37° C. in a 5% CO2 incubator. On day-1, cells were seeded at 2 densities in 384-well plates and incubated at 37° C. overnight. Stock compound plates were prepared in advance which contained dimethyl sulfoxide (DMSO) alone and a 9-point half-log decreasing dose range of the compound of Example 22 in DMSO. The compound plates were stored at −80° C. and each plate was only thawed once and used. On day 0, the main assay plates received compound or DMSO via a sonic delivery system (ECHO). The highest final concentration of compound of the dose range in the culture plates was 10 uM. These plates were cultured at 37° C. for 3 days. […] On day 3, the compound treated plates were stained and fixed to measure proliferation, apoptosis, and mitotic index using an InCell1000 analyser. A nuclear stain was used to identify cells in the wells. By counting the number of nuclei, the proliferation index of compound treated groups were calculated as a percentage relative to the DMSO control, which was set to 100%. The IC50 values were calculated using model 205 in ExcelFit.

- IC50 (5637, Bladder): > 5 µM
- IC50 (A7, Skin): 1 to 5 µM
- IC50 (AGS, Stomach): 1 to 5 µM
- IC50 (B-cell, BC-1, lymphoma - B cell unspecified): 1 to 5 µM
- IC50 (B-cell, BC-2, lymphoma - B cell unspecified): 1 to 5 µM
- IC50 (B-cell, BC-3, lymphoma - B cell unspecified): 1 to 5 µM
- IC50 (B-cell, DB, lymphoma - diffuse large B cell): 1 to 5 µM
- IC50 (C3A, Liver): 1 to 5 µM
- IC50 (C32TG, Skin): 1 to 5 µM
- IC50 (C-4I, Cervix): 1 to 5 µM
- IC50 (CEM/C1, CEM/C1, acute lymphoblastic leukaemia): > 5 µM
- IC50 (CESS, AML): > 5 µM
- IC50 (CML-T1, CML-T1, CML blast phase): < 1 µM
- IC50 (COLO 704, COLO-704, Ovary): > 5 µM
- IC50 (CRO-AP5, CRO-AP5, lymphoma - B cell unspecified): > 5 µM
- IC50 (DK-MG, glioma): 1 to 5 µM
- IC50 (EM-2, CML blast phase): > 5 µM
- IC50 (ES2, Ovary): 1 to 5 µM
- IC50 (GCT, Sarcoma): 1 to 5 µM
- IC50 (H4, glioma): > 5 µM
- IC50 (HN5, H&N): 1 to 5 µM
- IC50 (HOS, Sarcoma): < 1 µM
- IC50 (HT-3, Cervix): > 5 µM
- IC50 (Homo sapiens, 639-V, Bladder): 1 to 5 µM
- IC50 (Homo sapiens, 647-V, Bladder): 1 to 5 µM
- IC50 (Homo sapiens, 769-P, Kidney): 1 to 5 µM
- IC50 (Homo sapiens, 786-0, 786-0, Kidney): 1 to 5 µM
- IC50 (Homo sapiens, A101D, Skin): 1 to 5 µM
- IC50 (Homo sapiens, A 172, A172, glioma): 1 to 5 µM
- IC50 (Homo sapiens, A204, A204, Sarcoma - rhabdomyosarcoma): 1 to 5 µM
- IC50 (Homo sapiens, A498, A-498, Kidney): 1 to 5 µM
- IC50 (Homo sapiens, A673, A673, Sarcoma): < 1 µM
- IC50 (Homo sapiens, A2780, A2780, Ovary): < 1 µM
- IC50 (Homo sapiens, A-375, A375, Skin): 1 to 5 µM
- IC50 (Homo sapiens, A-427, A427, Lung): 1 to 5 µM
- IC50 (Homo sapiens, A-431, A-431, Skin): < 1 µM
- IC50 (Homo sapiens, ACHN, Kidney): 1 to 5 µM
- IC50 (Homo sapiens, AN3-CA, AN3CA, Uterus): 1 to 5 µM
- IC50 (Homo sapiens, ARH-77, ARH-77, Myeloma - plasma cell): 1 to 5 µM
- IC50 (Homo sapiens, ASPC1, AsPC-1, Pancreas): < 1 µM
- IC50 (Homo sapiens, BE(2)-C, BE(2)C, Brain): < 1 µM
- IC50 (Homo sapiens, BFTC-905, BFTC-905, Bladder): < 1 µM
- IC50 (Homo sapiens, BHT-101, BHT-101, Thyroid): > 5 µM
- IC50 (Homo sapiens, BPH-1, BPH1, Prostate): 1 to 5 µM
- IC50 (Homo sapiens, BT-20, BT-20, Breast): 1 to 5 µM
- IC50 (Homo sapiens, BT-474, BT474, Breast): 1 to 5 µM
- IC50 (Homo sapiens, BV-173, BV-173, CML blast phase): 1 to 5 µM
- IC50 (Homo sapiens, BXPC-3, BxPC-3, Pancreas): > 5 µM
- IC50 (Homo sapiens, BeWo, Placenta): 1 to 5 µM
- IC50 (Homo sapiens, C-4-II, C-4II, Cervix): 1 to 5 µM
- IC50 (Homo sapiens, C-33-A, C-33A, Cervix): 1 to 5 µM
- IC50 (Homo sapiens, CAKI-1, Caki-1, Kidney): > 5 µM
- IC50 (Homo sapiens, CAKI-2, Caki-2, Kidney): 1 to 5 µM
- IC50 (Homo sapiens, CAL-27, Cal27, H&N): > 5 µM
- IC50 (Homo sapiens, CAL-54, CAL-54, Kidney): 1 to 5 µM
- IC50 (Homo sapiens, CAL-62, CAL-62, Thyroid): 1 to 5 µM
- IC50 (Homo sapiens, CAPAN-1, Capan-1, Pancreas): < 1 µM
- IC50 (Homo sapiens, CCF-STTG1, CCF-STTG1, glioma): 1 to 5 µM
- IC50 (Homo sapiens, CGTH-W-1, CGTH-W-1, Thyroid): 1 to 5 µM
- IC50 (Homo sapiens, CHL-1, CHL-1, Skin): 1 to 5 µM
- IC50 (Homo sapiens, CHP-212, CHP-212, neuroblastoma): < 1 µM
- IC50 (Homo sapiens, COLO-829, Colo-829, Skin): > 5 µM
- IC50 (Homo sapiens, CRO-AP2, CRO-AP2, lymphoma - B cell unspecified): 1 to 5 µM
- IC50 (Homo sapiens, Caov-3, CAOV-3, Ovary): 1 to 5 µM
- IC50 (Homo sapiens, Capan-2, Capan-2, Pancreas): 1 to 5 µM
- IC50 (Homo sapiens, D283 Med, D283Med, medulloblastoma): 1 to 5 µM
- IC50 (Homo sapiens, DBTRG-05MG, glioma): > 5 µM
- IC50 (Homo sapiens, DU-4475, DU4475, Breast): 1 to 5 µM
- IC50 (Homo sapiens, Detroit 562, Detroit562, H&N): 1 to 5 µM
- IC50 (Homo sapiens, DoTc2-4510, DoTc2-4510, Cervix): > 5 µM
- IC50 (Homo sapiens, EFM-19, EFM-19, Breast): 1 to 5 µM
- IC50 (Homo sapiens, EKVX, Lung): 1 to 5 µM
- IC50 (Homo sapiens, FaDu, H&N): 1 to 5 µM
- IC50 (Homo sapiens, G-401, G-401, kidney): 1 to 5 µM
- IC50 (Homo sapiens, G-402, G-402, Kidney): 1 to 5 µM
- IC50 (Homo sapiens, GDM-1, GDM-1, AML): < 1 µM
- IC50 (Homo sapiens, HCC38, HCC38, Breast): 1 to 5 µM
- IC50 (Homo sapiens, HCC1143, HCC1143, Breast): 1 to 5 µM
- IC50 (Homo sapiens, HCC1395, HCC1395, Breast): 1 to 5 µM
- IC50 (Homo sapiens, HCC1937, HCC1937, Breast): > 5 µM
- IC50 (Homo sapiens, HCC1954, HCC1954, Breast): 1 to 5 µM
- IC50 (Homo sapiens, HCC2157, HCC2157, Breast): > 5 µM
- IC50 (Homo sapiens, HCC2218, HCC2218, Breast): > 5 µM
- IC50 (Homo sapiens, HCC 2998, HCC-2998, Colon): 1 to 5 µM
- IC50 (Homo sapiens, HEC-1-A, Uterus): > 5 µM
- IC50 (Homo sapiens, HEC-1B, HEC-1-B, Uterus): 1 to 5 µM
- IC50 (Homo sapiens, HEL 92.1.7, HEL-92.1.7, erythroleukemia): > 5 µM
- IC50 (Homo sapiens, HMCB, Skin): 1 to 5 µM
- IC50 (Homo sapiens, HOP-62, HOP-62, Lung): > 5 µM
- IC50 (Homo sapiens, HOP-92, HOP-92, Lung): 1 to 5 µM
- IC50 (Homo sapiens, HPAC, Pancreas): < 1 µM
- IC50 (Homo sapiens, HPAF-II, HPAFII, Pancreas): > 5 µM
- IC50 (Homo sapiens, HT1197, HT1197, Bladder): > 5 µM
- IC50 (Homo sapiens, HT-29, HT-29, Colon): < 1 µM
- IC50 (Homo sapiens, HT-1080, HT-1080, Sarcoma - fibrosarcoma): < 1 µM
- IC50 (Homo sapiens, HT-1376, HT1376, Bladder): > 5 µM
- IC50 (Homo sapiens, HeLa, Cervix): > 5 µM
- IC50 (Homo sapiens, Hep3B, Liver): 1 to 5 µM
- IC50 (Homo sapiens, HepG2, HepG2, Liver): 1 to 5 µM
- IC50 (Homo sapiens, Hs746T, Stomach): > 5 µM
- IC50 (Homo sapiens, HuP-T4, HuP-T4, Pancreas): > 5 µM
- IC50 (Homo sapiens, HuT78, Hut78, lymphoma - cutaneous T cell): 1 to 5 µM
- IC50 (Homo sapiens, IGROV-1, IGROV1, Ovary): < 1 µM
- IC50 (Homo sapiens, J-RT3-T3-5, J.RT3-T3.5, acute lymphoblastic leukaemia): 1 to 5 µM
- IC50 (Homo sapiens, JEG-3, JEG-3, Placenta): < 1 µM
- IC50 (Homo sapiens, K562, K-562, CML): > 5 µM
- IC50 (Homo sapiens, KATO III, KATOIII, Stomach): > 5 µM
- IC50 (Homo sapiens, KM12, KM12, Colon): > 5 µM
- IC50 (Homo sapiens, LOX IMVI, Skin): > 5 µM
- IC50 (Homo sapiens, LS174T, Colon): 1 to 5 µM
- IC50 (Homo sapiens, LS-1034, LS1034, Colon): < 1 µM
- IC50 (Homo sapiens, MC-IXC, neuroblastoma): < 1 µM
- IC50 (Homo sapiens, MCF7, MCF7, Breast): < 1 µM
- IC50 (Homo sapiens, MDA-MB-175-VII, Breast): 1 to 5 µM
- IC50 (Homo sapiens, MDA-MB-231, MDA-MB-231, Breast): 1 to 5 µM
- IC50 (Homo sapiens, MDA-MB-435, MDA-MB-435, Breast (Melanoma)): 1 to 5 µM
- IC50 (Homo sapiens, MDA-MB-453, MDA-MB-453, Breast): 1 to 5 µM
- IC50 (Homo sapiens, MDA-MB-468, MDA-MB-468, Breast): 1 to 5 µM
- IC50 (Homo sapiens, MES-SA, Sarcoma): > 5 µM
- IC50 (Homo sapiens, MIA PaCa-2, MiaPaCa, Pancreas): < 1 µM
- IC50 (Homo sapiens, MOLT-16, MOLT-16, acute lymphoblastic leukaemia): 1 to 5 µM
- IC50 (Homo sapiens, MV4-11, MV-4-11, acute leukaemia of ambiguous lineage): 1 to 5 µM
- IC50 (Homo sapiens, Malme-3M, Skin): > 5 µM
- IC50 (Homo sapiens, NCI-H69, NCI-H69, Lung): 1 to 5 µM
- IC50 (Homo sapiens, NCI-H82, NCI-H82, Lung): 1 to 5 µM
- IC50 (Homo sapiens, NCI-H146, NCI-H146, Lung): > 5 µM
- IC50 (Homo sapiens, NCI-H209, NCI-H209, Lung): 1 to 5 µM
SMILES: COc1cc(N2CCC(N3CCCCC3)CC2)ccc1Nc1nccc(-c2c(-c3cccc(C(=O)Nc4c(F)cccc4F)c3)nc3ccccn23)n1 [Example 22, 3-[3-(2-{[4-(1,4′-bipiperidin-1′-yl)-2-(methyloxy)phenyl]amino}-4-pyrimidinyl)imidazo[1,2-a]pyridin-2-yl]-N-(2,6-difluorophenyl)benzamide]
- IC50 (Homo sapiens, HCC70, HCC70, Breast): 1 to 5 µM
- IC50 (Homo sapiens, MCF-10A, MCF10a, Breast (Normal)): < 1 µM
